# Data as given in PubChem BioAssay AID1963451 (Molecular Pharmacology Branch, DTP, NCI, 2024).
# System: 521955-158-R6-J3-PDC complex spheroid growth, % test/control
# Experiment: Anticancer human tumor 521955-158-R6-J3-PDC patient-derived pancreatic carcinoma cell line growth inhibition [Asc]
# Details: for IC50: curve of first compound; for viability, T/C: stronger effect = lower value
# Procedure, shortened: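 Stromal components (HUVEC and hMSC) are co-assembled with the cancer cells into multicellular spheroids. Drugs are then added singly or paired, at concentrations falling by half-log increments from a clinically achievable maximum, capped at 10 microM without known Cmax.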
# 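Further: spheroids exposed to compounds for 7 days.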
# 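Wherever viability, T/C is given: 100% = DMSO vehicle control wells.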
smiles,measurement,setting,value
Cc1nc(N2CCC3(CC2)COC(C)C3N)c(CO)nc1Sc1ccnc(N)c1Cl (configuration not stated) + CCN1C(C(=O)NC23CCC(C(=O)O)(CC2)CC3)C(c2cccc(Cl)c2F)C2(C(=O)Nc3cc(Cl)ccc32)C12CCCCC2,IC50,second compound 0.00949 µM,> 3 µM
same,IC50,second compound 0.03 µM,> 3 µM
same,IC50,second compound 0.0949 µM,> 3 µM
same,IC50,second compound 0.3 µM,> 3 µM
same,IC50,second compound 0.949 µM,> 3 µM
same,IC50,second compound 3 µM,> 3 µM
same,"viability, T/C","second compound 0.00949 µM, first compound 0.00949 µM",128%
same,"viability, T/C","second compound 0.00949 µM, first compound 0.03 µM",107%
same,"viability, T/C","second compound 0.00949 µM, first compound 0.0949 µM",92.8%
same,"viability, T/C","second compound 0.00949 µM, first compound 0.3 µM",93.8%
same,"viability, T/C","second compound 0.00949 µM, first compound 0.949 µM",77.8%
same,"viability, T/C","second compound 0.00949 µM, first compound 3 µM",74.5%
same,"viability, T/C","second compound 0.03 µM, first compound 0.00949 µM",109%
same,"viability, T/C","second compound 0.03 µM, first compound 0.03 µM",104%
same,"viability, T/C","second compound 0.03 µM, first compound 0.0949 µM",91%
same,"viability, T/C","second compound 0.03 µM, first compound 0.3 µM",106%
same,"viability, T/C","second compound 0.03 µM, first compound 0.949 µM",93.8%
same,"viability, T/C","second compound 0.03 µM, first compound 3 µM",85.8%
same,"viability, T/C","second compound 0.0949 µM, first compound 0.00949 µM",115%
same,"viability, T/C","second compound 0.0949 µM, first compound 0.03 µM",113%
same,"viability, T/C","second compound 0.0949 µM, first compound 0.0949 µM",106%
same,"viability, T/C","second compound 0.0949 µM, first compound 0.3 µM",82.6%
same,"viability, T/C","second compound 0.0949 µM, first compound 0.949 µM",82.2%
same,"viability, T/C","second compound 0.0949 µM, first compound 3 µM",79.8%
same,"viability, T/C","second compound 0.3 µM, first compound 0.00949 µM",112%
same,"viability, T/C","second compound 0.3 µM, first compound 0.03 µM",82.6%
same,"viability, T/C","second compound 0.3 µM, first compound 0.0949 µM",113%
same,"viability, T/C","second compound 0.3 µM, first compound 0.3 µM",95%
same,"viability, T/C","second compound 0.3 µM, first compound 0.949 µM",83%
same,"viability, T/C","second compound 0.3 µM, first compound 3 µM",92.6%
same,"viability, T/C","second compound 0.949 µM, first compound 0.00949 µM",133%
same,"viability, T/C","second compound 0.949 µM, first compound 0.03 µM",104%
same,"viability, T/C","second compound 0.949 µM, first compound 0.0949 µM",93.5%
same,"viability, T/C","second compound 0.949 µM, first compound 0.3 µM",92.4%
same,"viability, T/C","second compound 0.949 µM, first compound 0.949 µM",82.2%
same,"viability, T/C","second compound 0.949 µM, first compound 3 µM",83.1%
same,"viability, T/C","second compound 3 µM, first compound 0.00949 µM",114%
same,"viability, T/C","second compound 3 µM, first compound 0.03 µM",90.2%
same,"viability, T/C","second compound 3 µM, first compound 0.0949 µM",104%
same,"viability, T/C","second compound 3 µM, first compound 0.3 µM",84.1%
same,"viability, T/C","second compound 3 µM, first compound 0.949 µM",87.5%
same,"viability, T/C","second compound 3 µM, first compound 3 µM",72.3%
